Test results published in patent US12185719B2, “Mixture of a folcysteine-based biostimulant and an agrotoxic substance of interest resulting in a quantitatively, qualitatively and time-related result-potentiating action as observed in an agricultural crop of a plant of interest” (priority 2017, dated 2025).

Tests used:
Tetranychus urticae = test: Laboratory test of mite control (Unesp, Jaboticabal); type: in vivo; conditions: dose 30 g-mL/100 L, lab conditions; for Mite control (%) 1 DFA: 1 day following application; for Mite control (%) 2 DFA: 2 days following application; for Mite control (%) 3 DFA: 3 days following application; for Mite control (%) 4 DFA: 4 days following application; for Mite control (%) 7 DFA: 7 days following application
From the text: Application of miticide propargite: application to control mites in lab conditions, performed by Unesp in Jaboticabal, SP. Quantitative (control) results are described in table 3. Assessments were made of the plant treated with miticide propargite against the witness plant (untreated).
Application of miticide abamectin: application to control mites in lab conditions, performed by Unesp in Jaboticabal, SP. Quantitative (control) results are described in Chart 4. Assessments were made of the plant treated with miticide abamectin against the witness plant (untreated).
Example 5: Laboratory Test Performed by Unesp in Jaboticabal, SP to Measure Mite Control, Specifically Control of Tetranychus Urticae with 4 Repetitions and 4 Treatments
The first (treatment 1) is a sample of the plant with no treatment (Witness). The second treatment is a sample treated with Folcysteine alone (treatment 2). The third treatment is a plant sample treated only with the agrotoxic of interest, miticide AI4 (based on propargite), identified as treatment 3, and the fourth treatment used a folcysteine-based biostimulant and an agrotoxic of interest, miticide AI4 (propargite-based), identified as treatment 4, applied under laboratory conditions. See the results in the following table:
Example 6: Laboratory Test Performed by Unesp in Jaboticabal, SP to Measure Mite Control, Specifically Control of Tetranychus Urticae with 4 Repetitions and 4 Treatments
The first (treatment 1) is a sample of the plant with no treatment (Witness). The second is a sample treated with Folcysteine alone (treatment 2). The third treatment is a plant sample treated only with the agrotoxic of interest, miticide AI5, and the fourth treatment uses a blend of folcysteine-based biostimulant and an agrotoxic of interest, miticide AI5 (abamectin-based), identified as treatment 4, applied under laboratory conditions.

corn = type: in vivo; conditions: dose 1.50 kg-l/ha

For abamectin, the “Mite control (%) 1 DFA” value (Tetranychus urticae) was 20%, the “Mite control (%) 2 DFA” value (Tetranychus urticae) was 20% and the “Mite control (%) 3 DFA” value (Tetranychus urticae) was 20%. For the same compound, the “Mite control (%) 4 DFA” value (Tetranychus urticae) was 45% and the “Mite control (%) 7 DFA” value (Tetranychus urticae) was 62%.
`CP(=O)(O)CCC(N)C(=O)O.N` (centres unmarked) [ammonium glufosinate] was tested, and the “Productivity Index” value (corn; herbicide alone = 100) was 100, the “Weight of 1,000 grains Index” value (corn; herbicide alone = 100) was 100 and the Productivity (corn; spraying volume 300 l/ha) was 7.142 b kg/ha. For the same compound, the “Weight of 1,000 grains” value (corn; spraying volume 300 l/ha) was 25.89 a g.
With `C#CCOS(=O)OC1CCCCC1Oc1ccc(C(C)(C)C)cc1` (centres unmarked) [Propargite, propargite] the “Mite control (%) 1 DFA” value (Tetranychus urticae) was 59%, the “Mite control (%) 2 DFA” value (Tetranychus urticae) was 63% and the “Mite control (%) 3 DFA” value (Tetranychus urticae) was 70%. For the same compound, the “Mite control (%) 4 DFA” value (Tetranychus urticae) was 77% and the “Mite control (%) 7 DFA” value (Tetranychus urticae) was 98%.
